In patent US11154569B2, “Ruthenium μ-nitrido complexes and their use as calcium uptake inhibitors” (CORNELL UNIVERSITY, priority 2018, dated 2021):

Key:
[1] = biological target: T1, mitochondrial calcium uniporter (MCU) (Homo sapiens, UniProt Q8NE86); test: Cytoplasmic and mitochondrial Ca2+ dynamics in intact HeLa cells after histamine; format: cell-based; design: 30 min) and Rhod-2 AM; endogenous in cells; host or cells: HeLa (intact; some experiments with transfected Ca2+ sensors R-GECO1 and GCamP6-mt, MCU itself not transfected); settings: for inhibition of MCU-mediated mCa2+ uptake in intact cells: intact HeLa cells, 50 μM for 30 minutes, histamine 100 μM, Rhod-2 AM and GCamP6-mt; for cytosolic calcium dynamics in intact cells: intact cells stimulated with histamine
T1 sequence (Q8NE86 51-351): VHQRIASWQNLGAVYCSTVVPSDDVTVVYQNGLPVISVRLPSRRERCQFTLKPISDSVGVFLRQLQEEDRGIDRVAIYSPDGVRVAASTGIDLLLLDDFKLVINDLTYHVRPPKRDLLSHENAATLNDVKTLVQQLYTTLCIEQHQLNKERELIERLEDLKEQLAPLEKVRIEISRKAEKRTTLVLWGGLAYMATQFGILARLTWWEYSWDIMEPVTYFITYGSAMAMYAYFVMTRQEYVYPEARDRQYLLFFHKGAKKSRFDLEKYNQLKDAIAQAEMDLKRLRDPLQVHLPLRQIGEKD
T1 sequence (Q9H4I9 48-107 partner limits assumed): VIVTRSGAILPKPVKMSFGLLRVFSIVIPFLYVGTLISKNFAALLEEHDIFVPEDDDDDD
Protocol: HeLa cells were loaded with Fluo-4-AM (5 μM; 30 min) and Rhod-2 AM (2 μM; 50 min) in extracellular medium as previously described (F. Perocchi et al, Nature 2010, 467, 291-296). Coverslips were mounted in an open perfusion microincubator at 37° C. and imaged. After 1 minute of baseline recording, histamine (100 μM) was added, and confocal images were recorded every 3 seconds at 488 and 561 nm excitation using a 40× oil objective. Images were analyzed and quantified by using ImageJ (NIH).
HeLa cells were transiently transfected with genetically encoded cytosolic and mitochondrial targeted Ca^2+ sensors R-GECO1 and GCamP6-mt plasmids. After 48 hours, the transfected cells were treated with MCU inhibitors (C1, C-2, and C-3; 50 μM). After 1 minute of baseline recording, histamine (100 μM) was added, and the change of R-GECO1 and GCamP6-mt fluorescence was measured with 488-nm and 561-nm excitation on a confocal microscope equipped with a 40× oil objective. Images were analyzed and quantified by using ImageJ (NIH).
Encouraged by the high cell permeability and mitochondrial selectivity of C-2, the capability of this complex to inhibit MCU-mediated mCa^2+ uptake in intact, non-permeabilized cells was investigated Briefly, HeLa cells were loaded with the cytosolic calcium concentration ([Ca^2+]) indicator Fluo-4 AM and the mitochondrial calcium concentration ([…]) indicator Rhod-2 AM in the presence or absence of C-1, C-2, and C-3 (50 μM). Cells were stimulated with the GPCR agonist histamine (100 μM) to rapidly elevate cCa^2+ levels to induce mCa^2+ uptake (Z. Dong et al., Mol. Cell 2017, 65, 1014-1028).
FIGS. 3A and 3B are graphs showing results of cytosolic ([Ca^2+]e, Fluo-4 AM) and mitochondrial ([Ca^2+]m, Rhod-2 AM) calcium transients in HeLa cells after treatment with histamine (100 μM) that were pretreated with or without C-1, C-2, or C-3 (50 μM) for 30 minutes. FIGS. 3C and 3D are graphs showing results of cytosolic ([Ca^2+]e, R-GECO) and mitochondrial ([Ca^2+]m, GCamP6-mt)) calcium transients in HeLa cells after treatment with histamine (100 μM) that were pretreated with or without C-1, C-2, or C-3 (50 μM) for 30 minutes. HeLa cells were co-transfected with R-GECO1 and GCamP6-mt. 48 hours post-transfection. Data are represented as mean±SEM. *p<0.05. n=3-6.

[2] = test system: neonatal rat ventricular myocytes (NRVMs); test: Hypoxia/reoxygenation injury in neonatal rat ventricular myocytes (ΔΨm and mCa2+ uptake); format: cell-based; settings: 50 μM, 16 hours hypoxia, 8 hours reoxygenation
Protocol: Freshly isolated NRVMs were subjected to 16 hours of hypoxia (5% O2-5% CO2) followed by 8 hours of reoxygenation (20% O2-5% CO2). To study the protective effect of C-2, HIR was induced in NRVMs pretreated with or without C-2 (50 μM).
An equal number of NRVMs (6×10^6 cells) were washed in Ca^2+ free PBS, pH 7.4, resuspended and permeabilized with 40 μg/ml digitonin in 1.5 mL of intracellular medium (ICM) composed of 120 mM KCl, 10 mM NaCl, 1 mM KH2PO4, 20 mM Hepes-Tris, pH 7.2 and 2 μM thapsigargin to block the SERCA pump. All measurements were performed in the presence of 2 mM succinate. The simultaneous measurement of mitochondrial membrane potential (ΔΨm) and extra-mitochondrial Ca^2+([Ca^2+]) clearance were measured as above by using the JC-1 and Fura2-FF dyes. A series of extra-mitochondrial Ca^2+ bolus (10 μM) was added and mitochondrial uncoupler, CCCP (2 μM), were added at the indicated time points. All the experiments were performed at 37° C. with constant stirring.
Given the Ca^2+ uptake inhibiting properties and low toxicity of C-2, C-2 was studied for its possible ability to protect cardiomyocytes from the mCa^2+ overload that occurs during hypoxia/reoxygenation (I-H/R) injury and prevent mPTP opening and mitochondrial swelling. Freshly isolated neonatal rat ventricular myocytes (NRVMs) treated with C-2 (50 μM) were subjected to 16 hours of hypoxia (1% O2-5% CO2), followed by 8 hours of reoxygenation (21% O2-5% CO2). Untreated NRVMs served as controls. After H/R injury, NRVMs were permeabilized and loaded with the JC-1 and Fura-FF to simultaneously measure ΔΨm and mCa^2+ uptake.

Molecule	inhibition of MCU-mediated mCa2+ uptake in intact cells [1]	inhibition of MCU-mediated mCa2+ uptake in intact cells ([1]; listed as Ru265)	cytosolic calcium dynamics in intact cells [1]	cytosolic calcium dynamics in intact cells ([1]; listed as Ru265)	mCa2+ uptake after H/R injury [2]	ΔΨm after H/R injury [2]
N.N.N.N.N.N.N.N.[Cl-].[Cl-].[N-3].[Ru+4].[Ru+4] [C-2, [Ru2(μ-N)(NH3)8Cl2]Cl3]	significant inhibition of MCU-mediated mCa^2+ uptake	most effective MCU-inhibition in non-permeabilized cells	normal cytosolic calcium dynamics	without any effect on intracellular Ca^2+ dynamics	complete ablation of mCa^2+ uptake	no loss of ΔΨm
N.N.N.N.N.N.N.N.O=C[O-].O=C[O-].[O-2].[Ru+3].[Ru+4] [Ru360, reference compound]						did not prevent H/R-mediated ΔΨm dissipation
[Ru2(μ-N)(en)4Cl2]Cl3 [C-3]	did not show appreciable inhibition of mCa^2+ uptake					
